In paper PMC10114980, “Triple targeting of mutant EGFR^L858R/T790M, COX-2, and 15-LOX: design and synthesis of novel quinazolinone tethered phenyl urea derivatives for anti-inflammatory and anticancer evaluation” (Journal of Enzyme Inhibition and Medicinal Chemistry, 2023):

How the values were obtained:
soybean 15-LOX = target: T1, soybean 15-LOX (Glycine max, UniProt P08170); assay: 15-LOX inhibitor screening assay (Cayman); format: biochemical; settings: mean ± SEM, n = 3 replicates
T1 sequence (P08170 1-839): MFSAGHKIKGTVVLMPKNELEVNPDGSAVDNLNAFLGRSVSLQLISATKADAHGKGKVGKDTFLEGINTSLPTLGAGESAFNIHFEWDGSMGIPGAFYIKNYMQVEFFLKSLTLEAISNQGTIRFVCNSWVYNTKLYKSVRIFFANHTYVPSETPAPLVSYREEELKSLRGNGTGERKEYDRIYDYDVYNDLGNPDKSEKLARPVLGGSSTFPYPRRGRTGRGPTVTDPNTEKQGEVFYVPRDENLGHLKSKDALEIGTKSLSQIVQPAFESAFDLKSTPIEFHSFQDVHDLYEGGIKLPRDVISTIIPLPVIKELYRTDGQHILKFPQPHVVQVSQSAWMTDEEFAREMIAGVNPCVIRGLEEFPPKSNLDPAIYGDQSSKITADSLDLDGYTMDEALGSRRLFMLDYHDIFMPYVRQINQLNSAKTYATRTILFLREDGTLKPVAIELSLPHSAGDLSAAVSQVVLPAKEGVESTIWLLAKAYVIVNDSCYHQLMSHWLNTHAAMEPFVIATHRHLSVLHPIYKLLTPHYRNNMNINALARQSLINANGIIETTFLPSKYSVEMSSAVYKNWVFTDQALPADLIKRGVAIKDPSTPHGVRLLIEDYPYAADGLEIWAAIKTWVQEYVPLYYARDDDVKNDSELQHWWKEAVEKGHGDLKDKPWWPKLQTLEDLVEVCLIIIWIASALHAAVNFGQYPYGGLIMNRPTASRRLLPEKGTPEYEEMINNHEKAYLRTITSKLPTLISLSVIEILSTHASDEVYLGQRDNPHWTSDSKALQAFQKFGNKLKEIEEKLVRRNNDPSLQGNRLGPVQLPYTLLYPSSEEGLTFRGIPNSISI

[1] = target: T2, double mutant EGFR^L858R/T790M (Homo sapiens, UniProt P00533, L858R/T790M); assay: In vitro EGFR inhibition assay, double mutant; format: biochemical; settings: for IC50: double mutant EGFR; for Selectivity (SI): ratio of the IC50 values EGFR^WT/EGFR^L858R/T790M
T2 construct: purchased AssayQuant Technologies, Inc. (Marlboro, MA, USA)

[2] = test system: LPS-induced ROS production in RAW 264.7 cells; assay: ROS production in LPS-activated RAW 264.7 macrophage cells (DCFH-DA); format: cell-based; settings: LPS-activated RAW 264.7 cells, mean ± SEM, three replicates; for IC50: Mus musculus, RAW264.7
Protocol: TNF-α and IL-6 production were detected in RAW 264.7 macrophage cell culture supernatants following the induction of inflammation by LPS. Moreover, the probes of oxidative species 2,7-dichlorofluorescein diacetate (DCFH-DA) (Molecular Probes) and NO, 4-amino-5-methylamino-2,7-difluorofluorescein diacetate (DAF-FM diacetate) (Molecular Probes) were used to investigate the antioxidant and NO production inhibitory potential of the test compounds. Briefly, RAW 264.7 cells were cultured in black 96 well plates (200 000 cells/mL, 100 µl/well) for 24 h followed by the incubation with the individual test compounds or the reference drugs at different concentrations (12.5, 25, 50, and 100 µM) for 2 h at 37 °C. LPS was then added at a final concentration of 1 µg/mL for an additional 18 h. The cell culture supernatant was collected from cells treated with the different compounds at 25 µM to measure TNF-α and IL-6 levels (1:10 dilution) using DuoSet ELISA kits (R&D Systems, Minneapolis, MN) following the manufacturer’s instructions. Then, the plates were washed to perform ROS and NO detection assays as detailed in our previous studies[16]^,[27].

A549/ATCC = assay: NCI single dose screen, A549/ATCC; format: cell-based; settings: Homo sapiens, non-small cell lung cancer, single dose 10^−5 M, read-out: growth inhibition percentage
Protocol: (§1) Screening of the anticancer activity of the newly synthesised compounds (6a, 6c, 6d, 6e, 6j, 6l, 6m, 6n, 6o, and 6p) was performed by the US National Cancer Institute (NCI) using 60 different human tumour cell lines in accordance with standard procedures formerly reported.
(§2) In vitro anticancer screening was carried out for the selected compounds at a single dose (10^−5 M) against 60 different human tumour cell lines of nine different cancer cell types: leukaemia, lung, colon, CNS, melanoma, ovarian, renal, prostate, and breast cancers.

SW-620 = assay: NCI single dose screen, SW-620; format: cell-based; settings: Homo sapiens; SW-620, colon cancer; single dose 10^−5 M; read-out: growth inhibition percentage
Protocol: as §1, §2

SF-295 = assay: NCI single dose screen, SF-295; format: cell-based; settings: Homo sapiens; SF-295, CNS cancer; single dose 10^−5 M; read-out: growth inhibition percentage
Protocol: as §1, §2

LOX IMVI = assay: NCI single dose screen, LOX IMVI; format: cell-based; settings: Homo sapiens, melanoma, single dose 10^−5 M, read-out: growth inhibition percentage
Protocol: as §1, §2

MALME-3M = assay: NCI single dose screen, MALME-3M; format: cell-based; settings: Homo sapiens, melanoma, single dose 10^−5 M, read-out: growth inhibition percentage
Protocol: as §1, §2

MDA-MB-435 = assay: NCI single dose screen, MDA-MB-435; format: cell-based; settings: Homo sapiens; MDA-MB-435, melanoma; single dose 10^−5 M; read-out: growth inhibition percentage
Protocol: as §1, §2

SK-MEL-2 = assay: NCI single dose screen, SK-MEL-2; format: cell-based; settings: Homo sapiens; SK-MEL-2, melanoma; single dose 10^−5 M; read-out: growth inhibition percentage
Protocol: as §1, §2

SK-MEL-28 = assay: NCI single dose screen, SK-MEL-28; format: cell-based; settings: Homo sapiens; SK-MEL-28, melanoma; single dose 10^−5 M; read-out: growth inhibition percentage
Protocol: as §1, §2

IGROV1 = assay: NCI single dose screen, IGROV1; format: cell-based; settings: Homo sapiens, IGROV-1; IGROV1, ovarian cancer; single dose 10^−5 M; read-out: growth inhibition percentage
Protocol: as §1, §2

OVCAR-4 = assay: NCI single dose screen, OVCAR-4; format: cell-based; settings: Homo sapiens; OVCAR-4, ovarian cancer; single dose 10^−5 M; read-out: growth inhibition percentage
Protocol: as §1, §2

OVCAR-8 = assay: NCI single dose screen, OVCAR-8; format: cell-based; settings: Homo sapiens; OVCAR-8, ovarian cancer; single dose 10^−5 M; read-out: growth inhibition percentage
Protocol: as §1, §2

ACHN = assay: NCI single dose screen, ACHN; format: cell-based; settings: Homo sapiens, renal cancer, single dose 10^−5 M, read-out: growth inhibition percentage
Protocol: as §1, §2

BT-549 = assay: NCI single dose screen, BT-549; format: cell-based; settings: Homo sapiens; BT-549, breast cancer; single dose 10^−5 M; read-out: growth inhibition percentage
Protocol: as §1, §2

MDA-MB-468 = assay: NCI single dose screen, MDA-MB-468; format: cell-based; settings: Homo sapiens; MDA-MB-468, breast cancer; single dose 10^−5 M; read-out: growth inhibition percentage
Protocol: as §1, §2

T2 sequence (P00533 25-1210 T790M/L858R): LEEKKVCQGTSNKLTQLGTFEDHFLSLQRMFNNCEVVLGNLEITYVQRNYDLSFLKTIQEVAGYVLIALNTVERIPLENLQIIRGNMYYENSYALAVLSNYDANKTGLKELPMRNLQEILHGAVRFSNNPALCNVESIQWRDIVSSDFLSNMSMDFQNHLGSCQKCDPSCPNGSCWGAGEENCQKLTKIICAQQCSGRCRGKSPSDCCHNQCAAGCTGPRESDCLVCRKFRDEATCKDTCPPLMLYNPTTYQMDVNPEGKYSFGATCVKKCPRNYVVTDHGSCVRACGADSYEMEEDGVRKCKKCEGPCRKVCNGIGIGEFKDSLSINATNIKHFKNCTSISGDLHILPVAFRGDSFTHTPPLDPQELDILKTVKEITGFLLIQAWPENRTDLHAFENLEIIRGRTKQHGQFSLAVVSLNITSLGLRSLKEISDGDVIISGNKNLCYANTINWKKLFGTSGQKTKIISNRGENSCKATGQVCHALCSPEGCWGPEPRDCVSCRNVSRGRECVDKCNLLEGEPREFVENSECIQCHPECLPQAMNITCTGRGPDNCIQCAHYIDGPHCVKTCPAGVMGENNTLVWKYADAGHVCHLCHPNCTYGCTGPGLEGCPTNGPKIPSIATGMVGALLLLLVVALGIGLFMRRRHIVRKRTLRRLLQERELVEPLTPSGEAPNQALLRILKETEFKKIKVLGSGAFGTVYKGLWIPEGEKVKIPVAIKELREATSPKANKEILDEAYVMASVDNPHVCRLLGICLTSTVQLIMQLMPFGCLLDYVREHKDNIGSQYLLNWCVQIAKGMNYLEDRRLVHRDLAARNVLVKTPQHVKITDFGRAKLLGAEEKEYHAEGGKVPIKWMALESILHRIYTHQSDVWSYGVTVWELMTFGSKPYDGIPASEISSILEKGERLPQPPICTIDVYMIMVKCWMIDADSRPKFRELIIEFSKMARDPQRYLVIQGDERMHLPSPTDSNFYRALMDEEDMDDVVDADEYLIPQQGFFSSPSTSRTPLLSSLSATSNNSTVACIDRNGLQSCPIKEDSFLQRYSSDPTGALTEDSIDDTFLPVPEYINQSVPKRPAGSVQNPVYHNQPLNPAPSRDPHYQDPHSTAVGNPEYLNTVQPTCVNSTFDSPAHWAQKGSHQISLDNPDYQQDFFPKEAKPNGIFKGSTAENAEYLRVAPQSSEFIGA

| Compound | IC50 (soybean 15-LOX) | IC50 [1] | Selectivity (SI) [1] | IC50 [2] | inhibition at 10 µM (A549/ATCC) | inhibition at 10 µM (SW-620) | inhibition at 10 µM (SF-295) | inhibition at 10 µM (LOX IMVI) | inhibition at 10 µM (MALME-3M) | inhibition at 10 µM (MDA-MB-435) | inhibition at 10 µM (SK-MEL-2) | inhibition at 10 µM (SK-MEL-28) | inhibition at 10 µM (IGROV1) | inhibition at 10 µM (OVCAR-4) | inhibition at 10 µM (OVCAR-8) | inhibition at 10 µM (ACHN) | inhibition at 10 µM (BT-549) | inhibition at 10 µM (MDA-MB-468) | ROS IC50 [2] |
| --- | --- | --- | --- | --- | --- | --- | --- | --- | --- | --- | --- | --- | --- | --- | --- | --- | --- | --- | --- |
| CN1CN(NC(=O)Nc2ccccc2)C(=O)c2ccccc21 [Compound 6a, 1-(1-Methyl-4-oxo-1,4-dihydroquinazolin-3(2H)-yl)-3-phenylurea] | 1.48 ± 0.27 µM | 0.46 ± 1.11 µM | >217 | 35.7 ± 1.08 µM | < 10% | < 10% | < 10% | < 10% | < 10% | < 10% | < 10% | < 10% | < 10% | < 10% | < 10% | < 10% | < 10% | < 10% | – |
| CN1c2ccccc2C(=O)N(NC(=O)Nc2ccccc2)C1c1ccccc1 (stereo not drawn) [Compound 6c, 1-(1-Methyl-4-oxo-2-phenyl-1,4-dihydroquinazolin-3(2H)-yl)-3-phenylurea] | 1.36 ± 0.19 µM | 7.93 ± 1.11 µM | >12.6 | 48.1 ± 1.07 µM | < 10% | < 10% | < 10% | < 10% | < 10% | < 10% | < 10% | < 10% | < 10% | < 10% | < 10% | < 10% | < 10% | < 10% | – |
| CN1c2ccccc2C(=O)N(NC(=O)Nc2ccccc2)C1c1ccc(F)cc1 (stereo not drawn) [Compound 6d, 1-(2-(4-Fluorophenyl)-1-methyl-4-oxo-1,4-dihydroquinazolin-3(2H)-yl)-3-phenylurea] | 1.96 ± 0.23 µM | 5.57 ± 1.78 µM | >17.9 | 37 ± 1 µM | < 10% | < 10% | < 10% | < 10% | < 10% | < 10% | < 10% | < 10% | < 10% | < 10% | < 10% | < 10% | < 10% | < 10% | – |
| CN1c2ccccc2C(=O)N(NC(=O)Nc2ccccc2)C1c1ccc([N+](=O)[O-])cc1 (stereo not drawn) [Compound 6e, 1-(1-Methyl-2-(4-nitrophenyl)-4-oxo-1,4-dihydroquinazolin-3(2H)-yl)-3-phenylurea] | 1.76 ± 0.27 µM | 5.48 ± 1.33 µM | 8.9 | > 100 µM | < 10% | < 10% | < 10% | < 10% | < 10% | < 10% | < 10% | < 10% | < 10% | < 10% | < 10% | < 10% | 67.1% | < 10% | neither compound 6e nor compound 6g inhibited ROS production significantly |
| COc1ccc(NC(=O)NN2C(=O)c3ccccc3N(C)C2c2ccc(OC)cc2)cc1 (stereo not drawn) [Compound 6j, 1-(4-Methoxyphenyl)-3-(2-(4-methoxyphenyl)-1-methyl-4-oxo-1,4-dihydroquinazolin-3(2H)-yl)urea] | 1.95 ± 0.35 µM | 4.03 ± 1.43 µM | >24.8 | 24.1 ± 1.08 µM | < 10% | < 10% | < 10% | < 10% | < 10% | < 10% | < 10% | < 10% | < 10% | < 10% | < 10% | < 10% | 70.1% | < 10% | – |
| CC1N(NC(=O)Nc2ccc(F)cc2)C(=O)c2ccccc2N1C (stereo not drawn) [Compound 6l, 1–(1,2-Dimethyl-4-oxo-1,4-dihydroquinazolin-3(2H)-yl)-3-(4-fluorophenyl)urea] | 1.58 ± 0.28 µM | 17 ± 1.4 µM | >5.8 | 37.9 ± 1 µM | < 10% | < 10% | < 10% | < 10% | < 10% | < 10% | < 10% | < 10% | < 10% | < 10% | < 10% | < 10% | < 10% | < 10% | – |
| CN1c2ccccc2C(=O)N(NC(=O)Nc2ccc(F)cc2)C1c1ccccc1 (stereo not drawn) [Compound 6m, 1-(4-Fluorophenyl)-3-(1-methyl-4-oxo-2-phenyl-1,4-dihydroquinazolin-3(2H)-yl)urea] | 2.23 ± 0.36 µM | 4.07 ± 3.7 µM | – | 57.2 ± 1 µM | < 10% | < 10% | < 10% | 21.9% | 10.8% | < 10% | < 10% | < 10% | < 10% | 10.8% | < 10% | < 10% | < 10% | < 10% | – |
